Data reported in US20260001847A1, “HERBICIDAL QUINOLONE DERIVATIVES” (SYNGENTA CROP PROTECTION AG, priority 2022, published 2026).
Marks after values point to notes of the source that are not given here.

What was measured:
Type in all cases: in vivo
[1] = tested on: Ipomoea hederacea (IPOHE); experiment: Pre-emergence Test; settings: evaluated after 13 days
Setaria faberi (SETFA) [2] = experiment: Pre-emergence Test; settings: 1000 g/ha, evaluated after 13 days
[3] = tested on: Echinochloa crus-galli (ECHCG); experiment: Pre-emergence Test; settings: 1000 g/ha, evaluated after 13 days
Zea mays (ZEAMX) [4] = experiment: Pre-emergence Test; settings: 1000 g/ha, evaluated after 13 days
[5] = tested on: Amaranthus retoflexus (AMARE); experiment: Pre-emergence Test; settings: evaluated after 13 days
[6] = tested on: Amaranthus palmeri (AMAPA); experiment: Pre-emergence Test; settings: evaluated after 13 days
[7] = tested on: Amaranthus palmeri (AMAPA); experiment: Post-emergence Test; settings: evaluated after 13 days
Experimental: (§1) Seeds of a variety of test species are sown in standard soil in pots (Abutilon theophrasti (ABUTH), Ipomoea hederacea (IPOHE). Setaria faberi (SETFA), Echinochloa crus-galli (ECHCG), Zea mays (ZEAMX), Amaranthus retoflexus (AMARE), Solanum nigrum (SOLNI), Lolium perenne (LOLPE), Amaranthus palmeri (AMAPA)). After 8 days cultivation under controlled conditions in a glasshouse (at 24° C./16° C., day/night-; 14 hours light; 65% humidity), the plants are sprayed with an aqueous spray solution derived from the formulation of the technical active ingredient in acetone/water (50:50) solution containing 0.5% Tween 20 (polyoxyethylene sorbitan monolaurate, CAS RN 9005-64-5). Compounds are applied at 1000 g/ha unless otherwise stated. The test plants are then grown in a glasshouse under controlled conditions in a glasshouse (at 24° C./16° C., day/night; 14 hours light; 65% humidity) and watered twice daily. After 13 days the test is evaluated for the percentage damage caused to the plant. The biological activities are shown in the following table on a five-point scale (5=81-100%; 4=61-80%; 3=41-60%; 2=21-40%; 1=0-20%; -=not tested).

[8] = tested on: Amaranthus retoflexus (AMARE); experiment: Post-emergence Test; settings: evaluated after 13 days
Experimental: as §1

[9] = tested on: Echinochloa crus-galli (ECHCG); experiment: Post-emergence Test; settings: evaluated after 13 days
Experimental: as §1

[10] = tested on: Ipomoea hederacea (IPOHE); experiment: Post-emergence Test; settings: evaluated after 13 days
Experimental: as §1

Setaria faberi (SETFA) [11] = experiment: Post-emergence Test; settings: evaluated after 13 days
Experimental: as §1

Zea mays (ZEAMX) [12] = experiment: Post-emergence Test; settings: evaluated after 13 days
Experimental: as §1

Row | SMILES | percentage damage caused to the plant, IPOHE ([1]; 1000 g/ha) | percentage damage caused to the plant, SETFA (Setaria faberi (SETFA) [2]) | percentage damage caused to the plant, ECHCG [3] | percentage damage caused to the plant, ZEAMX (Zea mays (ZEAMX) [4]) | percentage damage caused to the plant, AMAPA ([7]; 1000 g/ha) | percentage damage caused to the plant, AMARE ([8]; 1000 g/ha) | percentage damage caused to the plant, ECHCG ([9]; 1000 g/ha) | percentage damage caused to the plant, IPOHE ([10]; 1000 g/ha) | percentage damage caused to the plant, SETFA (Setaria faberi (SETFA) [11]; 1000 g/ha) | percentage damage caused to the plant, ZEAMX (Zea mays (ZEAMX) [12]; 1000 g/ha) | other results
1 | CCn1c(-c2ccc(Cl)c(Cl)c2)c(C(=O)O)c(=O)c2cc(S(C)(=O)=O)ccc21 [Compound 12, 2-(3,4-dichlorophenyl)-1-ethyl-6-methylsulfonyl-4-oxo-quinoline-3-carboxylic acid] | 1 (1=0-20%) | 5 (5=81-100%) | 5 (5=81-100%) | 1 (1=0-20%) | 2 (2=21-40%) | 3 (3=41-60%) | 4 (4=61-80%) | 2 (2=21-40%) | 3 (3=41-60%) | 1 (1=0-20%) | percentage damage caused to the plant, AMARE ([5]; 1000 g/ha): 3 (3=41-60%); percentage damage caused to the plant, AMAPA ([6]; 1000 g/ha): 3 (3=41-60%)
2 | CC(=O)c1cccc2c1c(=O)c(C(=O)O)cn2-c1ccc(OC(F)(F)F)cc1 [Compound 19, 5-acetyl-4-oxo-1-[4-(trifluoromethoxy)phenyl]quinoline-3-carboxylic acid] | 0 | 3 (3=41-60%) | 3 (3=41-60%) | 0 | 2 (2=21-40%) | 0 | 4 (4=61-80%) | 1 (1=0-20%) | 3 (3=41-60%) | 3 (3=41-60%) | –
3 | CCn1c(-c2ccc(Cl)c(Cl)c2)c(C(=O)O)c(=O)c2c(C#N)cccc21 [Compound 17, 5-cyano-2-(3,4-dichlorophenyl)-1-ethyl-4-oxo-quinoline-3-carboxylic acid] | – | – | – | – | – | – | – | – | – | – | percentage damage caused to the plant, IPOHE ([1]; 250 g/ha): 1* (1=0-20%); percentage damage caused to the plant, AMARE ([5]; 250 g/ha): 1* (1=0-20%); percentage damage caused to the plant, AMAPA ([6]; 250 g/ha): 1* (1=0-20%); percentage damage caused to the plant, AMAPA ([7]; 250 g/ha): 2* (2=21-40%); percentage damage caused to the plant, AMARE ([8]; 250 g/ha): 2* (2=21-40%); percentage damage caused to the plant, ECHCG ([9]; 250 g/ha): 1* (1=0-20%); percentage damage caused to the plant, IPOHE ([10]; 250 g/ha): 2* (2=21-40%); percentage damage caused to the plant, SETFA (Setaria faberi (SETFA) [11]; 250 g/ha): 1* (1=0-20%); percentage damage caused to the plant, ZEAMX (Zea mays (ZEAMX) [12]; 250 g/ha): 0*
4 | CCn1c(-c2ccc(Cl)c(Cl)c2)c(C(=O)O)c(=O)c2cc(C(F)(F)F)ccc21 [Compound 16, 2-(3,4-dichlorophenyl)-1-ethyl-4-oxo-6-(trifluoromethyl)quinoline-3-carboxylic acid] | 1 (1=0-20%) | 5 (5=81-100%) | 5 (5=81-100%) | 1 (1=0-20%) | 0 | 0 | 4 (4=61-80%) | 2 (2=21-40%) | 4 (4=61-80%) | 3 (3=41-60%) | percentage damage caused to the plant, AMARE ([5]; 1000 g/ha): 1 (1=0-20%)
5 | CCn1c(-c2ccc(Cl)c(Cl)c2)c(C(=O)O)c(=O)c2cc(SC)ccc21 [Compound 11, 2-(3,4-dichlorophenyl)-1-ethyl-6-methylsulfanyl-4-oxo-quinoline-3-carboxylic acid] | 1 (1=0-20%) | 5 (5=81-100%) | 5 (5=81-100%) | 2 (2=21-40%) | 3 (3=41-60%) | 2 (2=21-40%) | 4 (4=61-80%) | 1 (1=0-20%) | 3 (3=41-60%) | 2 (2=21-40%) | percentage damage caused to the plant, AMARE ([5]; 1000 g/ha): 1 (1=0-20%); percentage damage caused to the plant, AMAPA ([6]; 1000 g/ha): 3 (3=41-60%)
6 | CCn1c(-c2ccc(Cl)c(Cl)c2)c(C(=O)O)c(=O)c2cc(C#N)ccc21 [Compound 7, 6-cyano-2-(3,4-dichlorophenyl)-1-ethyl-4-oxo-quinoline-3-carboxylic acid] | 1 (1=0-20%) | 5 (5=81-100%) | 5 (5=81-100%) | 3 (3=41-60%) | 4 (4=61-80%) | 3 (3=41-60%) | – | 2 (2=21-40%) | 4 (4=61-80%) | 3 (3=41-60%) | –
7 | CCn1c(-c2ccc(Cl)c(Cl)c2)c(C(=O)O)c(=O)c2cc(C(N)=O)ccc21 [Compound 10, 6-carbamoyl-2-(3,4-dichlorophenyl)-1-ethyl-4-oxo-quinoline-3-carboxylic acid] | 0 | 0 | 0 | 2 (2=21-40%) | 4 (4=61-80%) | 2 (2=21-40%) | – | 1 (1=0-20%) | 4 (4=61-80%) | 2 (2=21-40%) | –
8 | CCn1c(-c2ccc(Cl)c(Cl)c2)c(C(=O)O)c(=O)c2cc(F)ccc21 [Compound 6, 2-(3,4-dichlorophenyl)-1-ethyl-6-fluoro-4-oxo-quinoline-3-carboxylic acid] | 0 | 5 (5=81-100%) | 5 (5=81-100%) | 0 | 3 (3=41-60%) | 1 (1=0-20%) | 4 (4=61-80%) | 3 (3=41-60%) | 4 (4=61-80%) | 4 (4=61-80%) | –
9 | CCn1c(-c2ccc(Cl)c(Cl)c2)c(C(=O)O)c(=O)c2cc(-c3ccc(F)cc3)ccc21 [Compound 9, 2-(3,4-dichlorophenyl)-1-ethyl-6-(4-fluorophenyl)-4-oxo-quinoline-3-carboxylic acid] | 1 (1=0-20%) | 4 (4=61-80%) | 3 (3=41-60%) | 1 (1=0-20%) | 2 (2=21-40%) | 2 (2=21-40%) | 0 | 2 (2=21-40%) | 0 | 0 | –
10 | CCn1c(-c2ccc(Cl)c(Cl)c2)c(C(=O)O)c(=O)c2cc(Cl)ccc21 [Compound 5, 6-chloro-2-(3,4-dichlorophenyl)-1-ethyl-4-oxo-quinoline-3-carboxylic acid] | 0 | 2 (2=21-40%) | 0 | 1 (1=0-20%) | 1 (1=0-20%) | 1 (1=0-20%) | – | 1 (1=0-20%) | 4 (4=61-80%) | 2 (2=21-40%) | –
11 | CCn1c(-c2ccc(Cl)c(Cl)c2)c(C(=O)O)c(=O)c2ccc(C(F)(F)F)cc21 [Compound 13, 2-(3,4-dichlorophenyl)-1-ethyl-4-oxo-7-(trifluoromethyl)quinoline-3-carboxylic acid] | 0 | 0 | 0 | 0 | 1 (1=0-20%) | 2 (2=21-40%) | 2 (2=21-40%) | 0 | 1 (1=0-20%) | 1 (1=0-20%) | –
